# US20110092544A1, “FUNGICIDAL PYRIDINES” (E.I. DU PONT DE nemours and company, priority 2008, published 2011)
# How the values were obtained:
# [1] = system: Erysiphe graminis f. sp. tritici; experiment: Test A: wheat powdery mildew, preventive spray on wheat seedlings, visual disease rating; format: in vivo; settings: for Test A rating (% disease control) / pest or weed control at 200 ppm: 200 ppm, 100 = 100% disease control, 0 = no control; for pest or weed control at 200 ppm / pest or weed control at 40 ppm: Blumeria graminis, 192 h; for pest or weed control at 40 ppm: 40 ppm (compound number followed by *)
# Summary of the method: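 Acetone/water (50/50) suspension with 250 ppm surfactant sprayed to run-off on wheat seedlings (200 ppm ≈ 500 g/ha); inoculated next day with E. graminis spore dust. Incubated 8 days at 20° C, then visually rated 0–100% disease control versus untreated controls; tests at 200 ppm or 40 ppm.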
# [2] = system: Alternaria solani; experiment: Test E: tomato early blight, preventive spray on tomato seedlings, visual disease rating; format: in vivo; settings: for Test E rating (% disease control) / pest or weed control at 200 ppm: 200 ppm, 100 = 100% disease control, 0 = no control; for pest or weed control at 200 ppm / pest or weed control at 40 ppm: Alternaria solani, 168 h; for pest or weed control at 40 ppm: 40 ppm (compound number followed by *)
# Summary of the method: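 Seedlings sprayed to run-off with compound in acetone/water plus 250 ppm Trem 014 (200 ppm ≈ 500 g/ha), inoculated with spores next day. Held 48 h saturated at 27 °C, then 5 days at 20 °C; visual rating 0–100% disease control relative to controls.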
# [3] = system: Septoria tritici; experiment: Test C: wheat leaf blotch, preventive spray on wheat seedlings, visual disease rating; format: in vivo; settings: for Test C rating (% disease control) / pest or weed control at 200 ppm: 200 ppm, 100 = 100% disease control, 0 = no control; for pest or weed control at 200 ppm / pest or weed control at 40 ppm: Zymoseptoria tritici, 504 h; for pest or weed control at 40 ppm: 40 ppm (compound number followed by *)
# Summary of the method: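 Wheat seedlings sprayed to run-off with compound in acetone/water plus 250 ppm surfactant at 200 ppm (≈500 g/ha), or 40 ppm where marked; inoculated with Septoria tritici next day. Held saturated at 20 °C for 48 h, then 19 days at 20 °C; disease control rated visually 0–100 versus controls.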
# [4] = system: Botrytis cinerea; experiment: Test F: tomato botrytis, preventive spray on tomato seedlings, visual disease rating; format: in vivo; settings: for Test F rating (% disease control) / pest or weed control at 200 ppm: 200 ppm, 100 = 100% disease control, 0 = no control; for pest or weed control at 200 ppm / pest or weed control at 40 ppm: Botrytis cinerea, 120 h; for pest or weed control at 40 ppm: 40 ppm (compound number followed by *)
# Summary of the method: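 Tomato seedlings sprayed to run-off with compound suspended in acetone/water (50/50) plus 250 ppm Trem 014, at 200 ppm (≈500 g/ha) or 40 ppm where marked. Inoculated next day with B. cinerea spores, 48 h saturated atmosphere at 20 °C, then 3 days at 24 °C. Visual rating, 0–100% disease control relative to controls.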
# [5] = system: Plasmopara viticola; experiment: Test H: grape downy mildew, spray after inoculation of grape seedlings, visual disease rating; format: in vivo; settings: 200 ppm, 100 = 100% disease control, 0 = no control; for pest or weed control at 200 ppm: Plasmopara viticola, 192 h
# [6] = system: Septoria nodorum; experiment: Test D: wheat glume blotch, preventive spray on wheat seedlings, visual disease rating; format: in vivo; settings: for Test D rating (% disease control) / pest or weed control at 200 ppm: 200 ppm, 100 = 100% disease control, 0 = no control; for pest or weed control at 200 ppm / pest or weed control at 40 ppm: Parastagonospora nodorum, 216 h; for pest or weed control at 40 ppm: 40 ppm (compound number followed by *)
# Summary of the method: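 Compounds in 3% acetone, then 50/50 acetone–water with 250 ppm Trem 014, sprayed to run-off at 200 ppm (500 g/ha; some at 40 ppm) one day before spore inoculation. Held 48 h saturated at 20 °C, then 7 days at 20 °C; visual rating as % disease control vs untreated (0–100).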
# [7] = system: Rhizoctonia oryzae; experiment: Test G: turf brown patch, preventive spray on creeping bent grass seedlings, visual disease rating; format: in vivo; settings: 200 ppm, 100 = 100% disease control, 0 = no control; for pest or weed control at 200 ppm: Waitea circinata, in Agrostis stolonifera, 120 h
# Text: General protocol for preparing test suspensions for Tests A-H: The test compounds were first dissolved in acetone in an amount equal to 3% of the final volume and then suspended at the desired concentration (in ppm) in acetone and purified water (50/50 mix) containing 250 ppm of the surfactant Trem® 014 (polyhydric alcohol esters). The resulting test suspensions were then used in tests A-H. Spraying a 200 ppm test suspension to the point of run-off on the test plants was the equivalent of a rate of 500 g/ha.
# The test suspension was sprayed to the point of run-off on creeping bent grass seedlings. The following day the seedlings were inoculated with a spore suspension of Rhizoctonia oryzae (the causal agent of turf brown patch) and incubated in a saturated atmosphere at 27° C. for 48 h, and then moved to a growth chamber at 27° C. for 3 days, after which time disease ratings were visually made.
# Results for Tests A-H are given in Table A. In the table, a rating of 100 indicates 100% disease control and a rating of 0 indicates no disease control (relative to the controls). A dash (-) indicates no test results. All results are for compounds tested at 200 ppm except where the compound number is followed by “*” which indicates the compound was tested at 40 ppm.
# [8] = system: Puccinia recondite f. sp. tritici; experiment: Test B: wheat leaf rust, preventive spray on wheat seedlings, visual disease rating; format: in vivo; settings: for Test B rating (% disease control) / pest or weed control at 200 ppm: 200 ppm, 100 = 100% disease control, 0 = no control; for pest or weed control at 200 ppm / pest or weed control at 40 ppm: 192 h; for pest or weed control at 40 ppm: 40 ppm (compound number followed by *)
# Summary of the method: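 Wheat seedlings were sprayed to run-off with compound suspension, 200 ppm (≈500 g/ha) or 40 ppm where marked, containing surfactant in acetone/water. Inoculation with Puccinia recondita spores followed one day later, then 24 h in saturated humidity at 20° C and 7 days at 20° C. Disease control was rated visually, 0–100% versus controls.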
SMILES,pest or weed control at 200 ppm [1] [%],pest or weed control at 200 ppm [2] [%],pest or weed control at 200 ppm [3] [%],pest or weed control at 200 ppm [4] [%],pest or weed control at 200 ppm [6] [%],pest or weed control at 200 ppm [8] [%],melting point [°C],pest or weed control at 40 ppm [1] [%],pest or weed control at 40 ppm [2] [%],pest or weed control at 40 ppm [3] [%],pest or weed control at 40 ppm [4] [%],pest or weed control at 40 ppm [6] [%],pest or weed control at 40 ppm [8] [%],also measured
COc1cc(OC)cc(-c2c(-c3ccc(F)cc3F)cnc(C)c2-c2ccc(F)cc2)c1 [Compound 38],,,,,,,,,,,,,,Test A rating (% disease control) [1]: 95%; Test E rating (% disease control) [2]: 87%; Test C rating (% disease control) [3]: 100%; Test F rating (% disease control) [4]: 98%; Test H rating (% disease control) [5]: 0%; Test D rating (% disease control) [6]: 0%; Test G rating (% disease control) [7]: 56%; Test B rating (% disease control) [8]: 80%
"COc1cc(OC)cc(-c2c(-c3ccccc3F)c[n+]([O-])c(C)c2-c2ccc(F)cc2)c1 [Compound 39, 4-(3,5-dimethoxyphenyl)-5-(2-fluorophenyl)-3-(4-fluorophenyl)-2-methylpyridine 1-oxide]",98,100,100,94,100,100,,,,,,,,pest or weed control at 200 ppm [5]: 0%; pest or weed control at 200 ppm [7]: 35%
"COc1cc(OC)cc(-c2c(C(C)=O)cnc(C)c2-c2c(F)cc(F)cc2F)c1 [Compound 40, 1-[4-(3,5-dimethoxyphenyl)-6-methyl-5-(2,4,6-trifluorophenyl)-3-pyridinyl]ethanone]",94,97,87,90,0,80,,,,,,,,pest or weed control at 200 ppm [5]: 0%; pest or weed control at 200 ppm [7]: 49%
COc1cc(OC)cc(-c2c(C(C)=O)cnc(C)c2-c2c(F)cccc2F)c1 [Compound 41],,,,,,,,,,,,,,Test A rating (% disease control) [1]: 100%; Test E rating (% disease control) [2]: 99%; Test C rating (% disease control) [3]: 99%; Test F rating (% disease control) [4]: 98%; Test H rating (% disease control) [5]: 0%; Test D rating (% disease control) [6]: 0%; Test G rating (% disease control) [7]: 99%; Test B rating (% disease control) [8]: 98%
"COc1cc(OC)cc(-c2c(C(C)(C)O)cnc(C)c2-c2c(F)cc(F)cc2F)c1 [Compound 44, 4-(3,5-dimethoxyphenyl)-α,α,6-trimethyl-5-(2,4,6-trifluorophenyl)-3-pyridinemethanol]",99,100,100,99,99,100,166 to 167,,,,,,,pest or weed control at 200 ppm [7]: 86%
"COc1cc(OC)cc(-c2c(-c3ccccc3F)cnc(C)c2-c2c(F)cc(F)cc2F)c1 [Compound 89, 4-(3,5-dimethoxyphenyl)-5-(2-fluorophenyl)-2-methyl-3-(2,4,6-trifluorophenyl)pyridine]",,,,,,,123 to 127,100,99,97,100,99,100,
"COc1cc(OC)cc(-c2c(CCl)cnc(C)c2-c2c(F)cc(F)cc2F)c1 [Compound 110, 5-(chloromethyl)-4-(3,5-dimethoxyphenyl)-2-methyl-3-(2,4,6-trifluorophenyl)pyridine]",100,100,96,99,87,100,110 to 115,,,,,,,
"COc1cc(OC)cc(-c2c(CC#N)cnc(C)c2-c2c(F)cc(F)cc2F)c1 [Compound 124, 4-(3,5-dimethoxyphenyl)-6-methyl-5-(2,4,6-trifluorophenyl)-3-pyridineacetonitrile]",,,,,,,131 to 133,100,100,99,100,100,100,
"CCOC(=O)c1cnc(C)c(-c2c(F)cc(F)cc2F)c1-c1cc(OC)cc(OC)c1 [Compound 130, ethyl 4-(3,5-dimethoxyphenyl)-6-methyl-5-(2,4,6-trifluorophenyl)-3-pyridinecarboxylate]",100,99,,100,0,93,93 to 95,,,,,,,
"COc1cc(OC)c(Cl)c(-c2c(CC#N)cnc(C)c2-c2c(F)cc(F)cc2F)c1 [Compound 133, 4-(2-chloro-3,5-dimethoxyphenyl)-6-methyl-5-(2,4,6-trifluorophenyl)-3-pyridineacetonitrile]",,,,,,,159 to 165,98,99,100,100,95,100,
"CCc1cnc(C)c(-c2c(F)cc(F)cc2F)c1-c1cc(OC)cc(OC)c1 [Compound 137, 4-(3,5-dimethoxyphenyl)-5-ethyl-2-methyl-3-(2,4,6-trifluorophenyl)pyridine]",,,,,,,102 to 105,100,99,100,100,97,100,
